Patent US20240294489A1 (Captor Therapeutics S.A., priority 2020, published 2024)
Structures can show the parent of a compound that is named as a salt.

Key:
Assay type in all cases: cell-based
[1] = molecular target: T1, Ikaros (IKZF1) (Homo sapiens, UniProt Q13422+Q96SW2); assay: Ikaros degradation assay, H929 cell line; conditions: H929 cells, 24 h; for inhibition at 20 µM / inhibition at 10 µM: NCI-H929, read-out: % of IKZF1 protein reduction; for % of IKZF1 protein reduction: numeric values
T1 construct: Ikaros degradation in the H929 cell line was investigated; endogenous in cells; host or cells: H929
T1 sequence (Q13422 whole entry): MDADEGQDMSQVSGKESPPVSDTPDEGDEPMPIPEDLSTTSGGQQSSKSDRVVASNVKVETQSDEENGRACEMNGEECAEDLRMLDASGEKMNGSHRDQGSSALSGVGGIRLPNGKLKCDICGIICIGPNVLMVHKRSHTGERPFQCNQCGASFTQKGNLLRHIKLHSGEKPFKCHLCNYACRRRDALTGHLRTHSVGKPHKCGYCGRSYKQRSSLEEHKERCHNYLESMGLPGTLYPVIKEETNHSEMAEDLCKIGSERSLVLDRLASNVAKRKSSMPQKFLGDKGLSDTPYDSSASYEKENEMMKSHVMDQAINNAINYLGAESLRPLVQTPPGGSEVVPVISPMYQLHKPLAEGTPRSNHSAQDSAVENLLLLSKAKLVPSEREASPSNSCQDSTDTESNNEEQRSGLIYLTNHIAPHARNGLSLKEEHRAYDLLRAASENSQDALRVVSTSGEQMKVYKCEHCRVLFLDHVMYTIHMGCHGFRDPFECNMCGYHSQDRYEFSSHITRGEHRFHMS
T1 sequence (Q96SW2 whole entry): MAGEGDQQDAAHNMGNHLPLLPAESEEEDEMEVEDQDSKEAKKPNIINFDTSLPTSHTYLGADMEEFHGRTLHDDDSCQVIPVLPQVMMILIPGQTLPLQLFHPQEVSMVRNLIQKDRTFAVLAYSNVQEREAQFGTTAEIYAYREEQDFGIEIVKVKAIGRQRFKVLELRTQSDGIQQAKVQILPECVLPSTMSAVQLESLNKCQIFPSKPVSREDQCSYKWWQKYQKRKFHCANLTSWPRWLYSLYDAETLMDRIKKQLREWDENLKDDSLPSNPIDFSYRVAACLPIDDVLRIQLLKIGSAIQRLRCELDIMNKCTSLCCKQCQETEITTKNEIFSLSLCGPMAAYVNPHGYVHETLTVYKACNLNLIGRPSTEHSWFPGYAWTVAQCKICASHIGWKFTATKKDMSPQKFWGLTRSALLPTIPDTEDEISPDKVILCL
T1 sequence (Q16531 whole entry partner): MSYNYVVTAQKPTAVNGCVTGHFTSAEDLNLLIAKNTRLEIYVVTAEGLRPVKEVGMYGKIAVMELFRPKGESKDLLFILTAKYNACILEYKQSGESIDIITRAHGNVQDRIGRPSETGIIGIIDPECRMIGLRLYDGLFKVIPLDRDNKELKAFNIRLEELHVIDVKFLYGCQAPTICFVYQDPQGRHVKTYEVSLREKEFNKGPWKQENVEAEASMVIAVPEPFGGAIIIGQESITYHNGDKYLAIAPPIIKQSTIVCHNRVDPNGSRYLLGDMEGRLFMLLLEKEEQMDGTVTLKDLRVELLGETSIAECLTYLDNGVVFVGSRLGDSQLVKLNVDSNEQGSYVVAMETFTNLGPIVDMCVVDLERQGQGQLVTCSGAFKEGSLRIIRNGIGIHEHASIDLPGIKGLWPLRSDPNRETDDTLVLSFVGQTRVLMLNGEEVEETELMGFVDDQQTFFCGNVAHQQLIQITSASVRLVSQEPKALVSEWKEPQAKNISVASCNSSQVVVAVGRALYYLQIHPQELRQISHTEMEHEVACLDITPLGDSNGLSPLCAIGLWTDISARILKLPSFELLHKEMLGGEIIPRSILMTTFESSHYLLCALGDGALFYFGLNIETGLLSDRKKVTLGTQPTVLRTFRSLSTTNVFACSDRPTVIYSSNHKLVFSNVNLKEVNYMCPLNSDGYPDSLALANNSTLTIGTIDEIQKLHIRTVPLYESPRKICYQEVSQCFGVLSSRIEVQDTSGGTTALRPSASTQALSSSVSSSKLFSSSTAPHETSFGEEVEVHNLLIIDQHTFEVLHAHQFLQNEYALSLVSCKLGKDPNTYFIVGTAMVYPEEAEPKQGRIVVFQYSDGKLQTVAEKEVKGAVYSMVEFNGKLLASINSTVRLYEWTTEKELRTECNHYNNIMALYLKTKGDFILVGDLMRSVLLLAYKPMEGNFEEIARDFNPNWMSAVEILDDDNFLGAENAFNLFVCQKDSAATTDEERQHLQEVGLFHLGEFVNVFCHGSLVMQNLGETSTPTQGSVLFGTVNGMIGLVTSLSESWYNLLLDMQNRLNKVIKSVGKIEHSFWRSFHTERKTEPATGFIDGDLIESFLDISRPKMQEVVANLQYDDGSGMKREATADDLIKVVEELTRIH
Description: Cells were seeded on 6- or 12-well plates, and the compounds to be tested were added at the desired concentration range. […] After 24 h incubation (37° C., 5% CO2), cells were harvested, washed and cell lysates were prepared using RIPA lysis buffer. The amount of protein was determined via BCA assay, and the appropriate quantity was then loaded on the precast gel for the protein separation. After primary and secondary Ab staining, the membranes were washed and signals developed. The densitometry analysis was implemented to obtain the numeric values used later in the protein level evaluation process.

[2] = system: H929 cells; assay: Cell viability CTG assay, H929; set-up: key to Geomean absolute IC50 by molecule, 72 H: Inactive represents IC50 > 50 μM; C represents 50 μM ≥ IC50 > 5 μM; conditions: H929, 72 h, 0.001-50 μM; for IC50: Homo sapiens, NCI-H929, numeric values, read-out: Geomean absolute IC50 by molecule, 72 H
Description: (§1) The effect of various compounds of the invention and various reference compounds on cell viability in various cell lines was investigated, using the Cell Viability—CTG Assay Protocol below. Hep3B, Kelly, H929, KG-1 and SNU-398 cells were maintained in respective cell medium (see Table 8, below). The cells were seeded on the 96-well or 384-white plates, and the compounds to be tested were added at the desired concentration range. Compounds are diluted in DMSO, and the DMSO concentration is kept constant at 0.25% v/v across the assay plate. After 72 h incubation (37° C., 5% CO2), CellTiter-Glo® Reagent (Promega/G7570) was added to the wells. Plates are shaken for 4 minutes and incubated for 8 minutes in the dark prior to reading luminescence (LU) by using the CLARIOstar Multimode Plate Reader. The signal is proportional to the amount of ATP, which is directly proportional to the number of cells present in the culture.
(§2) Luminescence (RLU) values were normalized to DMSO control. Dose response is assessed by non-linear regression and IC50 calculation with the average of technical duplicate of percentage inhibition. IC50 values are reported as absolute IC50 values, being the concentration of test compound at the intersection of the concentration-response curves with T/C=50%. For calculation of mean IC50 values the geometric mean is used.

[3] = system: KG-1 cells; assay: Cell viability CTG assay, KG-1; conditions: Homo sapiens; KG-1, 72 h, 0.001-50 μM; read-out: KG-1 Geomean absolute IC50 by molecule, 72 H
Description: as §1, §2

[4] = system: Hep3B cells; assay: Cell viability CTG assay, Hep3B; conditions: Homo sapiens, 72 h, 0.001-50 μM, read-out: Hep3B Geomean absolute IC50 by molecule, 72 H
Description: as §1, §2

[5] = molecular target: T2, GSPT1 (Homo sapiens, UniProt P15170+Q96SW2); assay: GSPT1 degradation assay, Hep3B cell line; conditions: HEP3B cells, 24 h, read-out: % of GSPT1 protein reduction
T2 construct: GSPT1 degradation in the Hep3B cell line was investigated; endogenous in cells; host or cells: Hep3B
T2 sequence (P15170 whole entry): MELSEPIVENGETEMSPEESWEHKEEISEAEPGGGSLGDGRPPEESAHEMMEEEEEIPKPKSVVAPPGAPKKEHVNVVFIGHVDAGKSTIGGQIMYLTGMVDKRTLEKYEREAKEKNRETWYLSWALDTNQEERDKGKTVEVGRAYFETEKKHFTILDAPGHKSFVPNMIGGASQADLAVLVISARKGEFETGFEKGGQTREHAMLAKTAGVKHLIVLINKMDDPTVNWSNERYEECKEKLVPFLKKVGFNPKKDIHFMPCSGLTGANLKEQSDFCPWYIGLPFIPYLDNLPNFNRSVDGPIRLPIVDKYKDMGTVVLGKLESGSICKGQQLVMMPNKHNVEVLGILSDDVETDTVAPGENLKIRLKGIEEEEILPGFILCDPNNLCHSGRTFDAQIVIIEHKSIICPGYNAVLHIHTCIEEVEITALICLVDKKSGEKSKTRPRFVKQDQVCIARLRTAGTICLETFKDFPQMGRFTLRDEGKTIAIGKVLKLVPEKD
T2 sequence (Q96SW2 whole entry): as the sequence (Q96SW2 whole entry) above
T2 sequence (Q16531 whole entry partner): as the sequence (Q16531 whole entry partner) above
Description: Hep3B cells were maintained in EMEM medium, supplemented with penicillin/streptomycin and 10% Fetal Bovine Serum (FBS). Cells were seeded on 6- or 12-well plates, and the compounds to be tested were added at the desired concentration range. Final DMSO concentration was 0.25%. After 24 h incubation (37° C., 5% CO2), cells were harvested, washed and cell lysates were prepared using RIPA lysis buffer. The amount of protein was determined via BCA assay, and the appropriate quantity was then loaded on the precast gel for the protein separation. After primary and secondary Ab staining, the membranes were washed and signals developed. The densitometry analysis was implemented to obtain the numeric values used later in the protein level evaluation process. Densitometry values were normalized to the loading control and calculated as [%] of the DMSO control.

[6] = system: Kelly cells; assay: Cell viability CTG assay, Kelly; conditions: 72 h, 0.001-50 μM, read-out: Kelly Geomean absolute IC50 by molecule, 72 H
Description: as §1, §2

With `CC(C)(C)OC(=O)NC(C)(C)C(=O)NCc1ccc2c(c1)CN(C1CCC(=O)NC1=O)C2=O` (stereo not drawn) [Compound 33, tert-butyl (1-(((2-(2,6-dioxopiperidin-3-yl)-1-oxoisoindolin-5-yl)methyl)amino)-2-methyl-1-oxopropan-2-yl)carbamate] the inhibition at 20 µM ([1]; 20 uM) was 0 to 24%.

For `O=C1CCC(N2Cc3cc(CNC(=O)[C@@H]4CCCN4)ccc3C2=O)C(=O)N1` (stereo partly drawn) [Compound 43, (2S)—N-((2-(2,6-dioxopiperidin-3-yl)-1-oxoisoindolin-5-yl)methyl)pyrrolidine-2-carboxamide hydrochloride], the “Geomean absolute IC50 by molecule, 72 H” value [2] was “Inactive”, the IC50 [3] was 1000 to 5000 nM and the IC50 [4] was 100 to 1000 nM. It also gave an inhibition at 20 µM ([1]; 20 uM) of 0 to 24%.

`CC(C)C(N)C(=O)NCc1ccc2c(c1)CN(C1CCC(=O)NC1=O)C2=O` (stereo not drawn) [Compound 32, 2-amino-N-((2-(2,6-dioxopiperidin-3-yl)-1-oxoisoindolin-5-yl)methyl)-3-methylbutanamide] gave an inhibition at 20 µM ([1]; 20 uM) of 0 to 24%.

In the case of `O=C1CCC(N2Cc3cc(C(=O)O)c(F)cc3C2=O)C(=O)N1` (stereo not drawn) [Compound 54, 2-(2,6-dioxopiperidin-3-yl)-6-fluoro-1-oxo-2,3-dihydro-1H-isoindole-5-carboxylic acid], the inhibition at 10 µM [5] is reported as 80 to 100% and the inhibition at 10 µM ([1]; 10 uM) is reported as 0 to 24%.

Work on `O=C1CCC(N2Cc3cc(CNC(=O)c4ccccc4CO)ccc3C2=O)C(=O)N1` (stereo not drawn) [Compound 20, N-{[2-(2,6-dioxopiperidin-3-yl)-1-oxo-2,3-dihydro-1H-isoindol-5-yl]methyl}-2-(hydroxymethyl)benzamide] yielded an inhibition at 10 µM [5] of 50 to 79%.

With `Cc1c(CN)ccc2c1CN(C1CCC(=O)NC1=O)C2=O` (stereo not drawn) [Compound 6, 3-[5-(aminomethyl)-4-methyl-1-oxo-2,3-dihydro-1H-isoindol-2-yl]piperidine-2,6-dione] the “Geomean absolute IC50 by molecule, 72 H” value [2] was “Inactive” and the IC50 [4] was at most 100 nM.

For `CC1c2cc(CN)ccc2C(=O)N1C1CCC(=O)NC1=O` (stereo not drawn) [Compound 52, 3-[5-(aminomethyl)-3-methyl-1-oxo-2,3-dihydro-1H-isoindol-2-yl]piperidine-2,6-dione], the “Geomean absolute IC50 by molecule, 72 H” value [2] was “Inactive”, the inhibition at 10 µM [5] was 80 to 100% and the IC50 [4] was at most 100 nM. For the same compound, the inhibition at 10 µM ([1]; 10 uM) was 0 to 24%.

Compound `O=C1CCC(N2Cc3cc(C(=O)O)ccc3C2=O)C(=O)N1` (stereo not drawn) [Compound 53] has an inhibition at 1 µM ([5]; 1 uM) of 50 to 79% and an inhibition at 10 µM [5] of 80 to 100%.

`O=C(CCc1ccc(Cl)cc1)NCc1ccc2c(c1)CN(C1CCC(=O)NC1=O)C2=O` (stereo not drawn) [Compound 42] showed an IC50 [6] of at most 100 nM, an IC50 [3] of at most 100 nM and an IC50 [4] of at most 100 nM.

With `CC(C)(C)OC(=O)NCC(=O)NCc1ccc2c(c1)CN(C1CCC(=O)NC1=O)C2=O` (stereo not drawn) [Compound 26, tert-butyl (2-(((2-(2,6-dioxopiperidin-3-yl)-1-oxoisoindolin-5-yl)methyl)amino)-2-oxoethyl)carbamate] the “Geomean absolute IC50 by molecule, 72 H” value [2] was “Inactive”, the IC50 [4] was at most 100 nM and the inhibition at 20 µM ([1]; 20 uM) was 0 to 24%.

Work on `CC(=O)OCc1ccccc1C(=O)NCc1ccc2c(c1)CN(C1CCC(=O)NC1=O)C2=O` (stereo not drawn) [Compound 19, [2-({[2-(2,6-dioxopiperidin-3-yl)-1-oxo-2,3-dihydro-1H-isoindol-5-yl]methyl}carbamoyl)phenyl]methyl acetate] yielded an inhibition at 10 µM [5] of 50 to 79%.

`Cc1nc2cccc(N)c2c(=O)n1C1CCC(=O)NC1=O` (stereo not drawn) [CC-122, reference compound] showed an IC50 [2] of 72 nM.

In the case of `NCc1ccc2c(c1F)CN(C1CCC(=O)NC1=O)C2=O` (stereo not drawn) [Compound 5, 3-[5-(aminomethyl)-4-fluoro-1-oxo-2,3-dihydro-1H-isoindol-2-yl]piperidine-2,6-dione], the “Geomean absolute IC50 by molecule, 72 H” value [2] is reported as “Inactive”, the inhibition at 10 µM [5] is reported as 80 to 100% and the IC50 [4] is reported as 100 to 1000 nM. For the same compound, the inhibition at 10 µM ([1]; 10 uM) was 0 to 24%.

For `O=C1CC[C@@H](N2Cc3c(OCc4ccc(CN5CCOCC5)cc4)cccc3C2=O)C(=O)N1` [CC-220, reference compound], the IC50 [2] was 4 nM.

In the case of `O=C1CCC(N2Cc3cc(CO)ccc3C2=O)C(=O)N1` (stereo not drawn) [Compound 17, 3-(5-(hydroxymethyl)-1-oxoisoindolin-2-yl)piperidine-2,6-dione], the inhibition at 10 µM ([1]; 10 uM) is reported as 0 to 24%.

For `Cc1cc2c(cc1CN)CN(C1CCC(=O)NC1=O)C2=O` (stereo not drawn) [Compound 4, 3-[5-(aminomethyl)-6-methyl-1-oxo-2,3-dihydro-1H-isoindol-2-yl]piperidine-2,6-dione], the inhibition at 10 µM ([1]; 10 uM) was 0 to 24%.

In the case of `CN(C)Cc1ccc2c(c1)CN(C1CCC(=O)NC1=O)C2=O` (stereo not drawn) [Compound 16, 3-(5-((dimethylamino)methyl)-1-oxoisoindolin-2-yl)piperidine-2,6-dione], the inhibition at 10 µM ([1]; 10 uM) is reported as 0 to 24%.

Compound `C[C@@H](N)c1ccc2c(c1)CN(C1CCC(=O)NC1=O)C2=O` (stereo partly drawn) [Compound 10, 3-{5-[(1R)-1-aminoethyl]-1-oxo-2,3-dihydro-1H-isoindol-2-yl}piperidine-2,6-dione] has an inhibition at 10 µM ([1]; 10 uM) of 0 to 24%.

With `Cc1ccc(NC(=O)NCc2ccc3c(c2)CN(C2CCC(=O)NC2=O)C3=O)cc1Cl` (stereo not drawn) [CC-885, reference compound] the “% of IKZF1 protein reduction” value ([1]; 10 uM) was over 99% and the “% of IKZF1 protein reduction” value ([1]; 20 uM) was over 99%.

With `C[C@H](NC(=O)OC(C)(C)C)c1ccc2c(c1)CN(C1CCC(=O)NC1=O)C2=O` (stereo partly drawn) [Compound 9, tert-butyl N-[(1S)-1-[2-(2,6-dioxopiperidin-3-yl)-1-oxo-2,3-dihydro-1H-isoindol-5-yl]ethyl]carbamate] the inhibition at 20 µM ([1]; 20 uM) was 0 to 24%.

`CC(C)(N)C(=O)NCc1ccc2c(c1)CN(C1CCC(=O)NC1=O)C2=O` (stereo not drawn) [Compound 34, 2-amino-N-((2-(2,6-dioxopiperidin-3-yl)-1-oxoisoindolin-5-yl)methyl)-2-methylpropanamide] showed an inhibition at 20 µM ([1]; 20 uM) of 0 to 24%.

`CC(C)(C)OC(=O)N[C@@H](Cc1cnc[nH]1)C(=O)NCc1ccc2c(c1)CN([C@H]1CCC(=O)NC1=O)C2=O` [Compound 30, tert-butyl ((S)-1-(((2-((S)-2,6-dioxopiperidin-3-yl)-1-oxoisoindolin-5-yl)methyl)amino)-3-(1H-imidazol-4-yl)-1-oxopropan-2-yl)carbamate] gave an inhibition at 20 µM ([1]; 20 uM) of 0 to 24%.

Work on `NCc1cc(F)c2c(c1)CN(C1CCC(=O)NC1=O)C2=O` (stereo not drawn) [Compound 7, 3-[5-(aminomethyl)-7-fluoro-1-oxo-2,3-dihydro-1H-isoindol-2-yl]piperidine-2,6-dione] yielded an inhibition at 10 µM [5] of 50 to 79% and an inhibition at 10 µM ([1]; 10 uM) of 0 to 24%.

`C[C@H](N)c1ccc2c(c1)CN(C1CCC(=O)NC1=O)C2=O` (stereo partly drawn) [Compound 8, 3-{5-[(1S)-1-aminoethyl]-1-oxo-2,3-dihydro-1H-isoindol-2-yl}piperidine-2,6-dione] gave an inhibition at 20 µM ([1]; 20 uM) of 0 to 24%.

Work on `C[C@@H](NC(=O)OC(C)(C)C)c1ccc2c(c1)CN(C1CCC(=O)NC1=O)C2=O` (stereo partly drawn) [Compound 11, tert-butyl N-[(1R)-1-[2-(2,6-dioxopiperidin-3-yl)-1-oxo-2,3-dihydro-1H-isoindol-5-yl]ethyl]carbamate] yielded an inhibition at 20 µM ([1]; 20 uM) of 0 to 24%.

With `O=C(CCc1c[nH]c2ccccc12)NCc1ccc2c(c1)CN(C1CCC(=O)NC1=O)C2=O` (stereo not drawn) [Compound 36] the IC50 [6] was at most 100 nM, the IC50 [3] was at most 100 nM and the IC50 [4] was at most 100 nM.

`N=C(N)NCCCC(N)C(=O)NCc1ccc2c(c1)CN(C1CCC(=O)NC1=O)C2=O` (stereo not drawn) [Compound 38, 2-amino-N-((2-(2,6-dioxopiperidin-3-yl)-1-oxoisoindolin-5-yl)methyl)-5-guanidinopentanamide] was tested, and the “Geomean absolute IC50 by molecule, 72 H” value [2] was “Inactive” and the IC50 [4] was 100 to 1000 nM.
